According to patent US10420768B2, “Pyrrolopyrimidine derivatives as NR2B NMDA receptor antagonists” (Rugen Holdings (Cayman) Limited, priority 2014, dated 2019):

What was measured:
rats [1] = test: Electroconvulsive threshold (ECT) test; assay type: in vivo, rat
rats [2] = test: Haloperidol-induced catalepsy (HIC) model; assay type: in vivo, rat; conditions: positive control 8 mg/kg
mice (strain NLMN) = test: Forced swim test; assay type: in vivo, mouse; conditions: positive control 32 mg/kg IP

## CN1C(=O)CN=C(c2ccccc2)c2cc(Cl)ccc21 [diazepam]
Rats [1]; positive control 16 mg/kg p.o.
  anticonvulsant activity (electroconvulsive threshold): showed the expected pro- and anticonvulsant activities

## CC(N)Cc1ccccc1 (stereo not shown) [amphetamine]
Rats [2]
  anticataleptic activity (catalepsy score): showed the expected robust anticataleptic activity

## Cn1c(=O)c2[nH]cnc2n(C)c1=O [theophylline, Theophylline]
Rats [1]; positive control 128 mg/kg p.o.
  proconvulsant activity (electroconvulsive threshold): showed the expected pro- and anticonvulsant activities

## CN(C)CCCN1c2ccccc2CCc2ccccc21 [imipramine]
Mice (strain NLMN)
  antidepressant activity (immobility time): showed the expected antidepressant activity
